Test results as given in patent US6458781B1, “Substituted diarylalkyl amides as calcium channel antagonists” (priority 1998, dated 2002).
Counter-ions that a name gives are not always drawn. Like-named read-outs stand apart in the source and are kept apart here.

Assays:
[1] = biological target: T1, N-type calcium channels in IMR-32 cells (Homo sapiens, UniProt Q00975); experiment: N-type Ca2+ channel blocking potency in IMR-32 cells using Indo-1; type: cell-based; conditions: for IC50: IMR-32 cells
T1 construct: host or cells: IMR-32 cells differentiated with dibutyryl cAMP and bromodeoxyuridine
How it was run: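 Differentiated IMR-32 cells loaded with Indo-1 AM were preincubated with compound and 5 μM nitrendipine (L-type block) for 10 min at 30° C in HEPES/Tris pH 7.4 HBSS with 0.5% BSA. Cells were depolarized with KCl/CaCl2, and the 400/490 nm emission ratio rise over basal was measured. IC50 came from a four-parameter logistic fit.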

[2] = system: sound-induced tonic convulsions in DBA/2 mice; experiment: Audiogenic seizure model in DBA/2 mice; type: in vivo; conditions: Mus musculus, 30 mg/Kg IV, protected/tested, read-out: Number of Mice Protected From Tonic Convulsions (converted)
Procedure: Audiogenic Seizure Model in DBA/2 Mice
A compound of the present invention was dissolved in water using 10% (weight/volume) Emulphor (GAF Corp., Wayne, N.J.) surfactant. Substances were administered by intravenous injection into the retro-orbital venous sinus of male mice (3-4 weeks old, Jackson Laboratories, Bar Harbour, Me.). All testing was preformed 15 minutes or 45 minutes after drug injection. Immediately before anticonvulsant testing, mice were placed upon a wire mesh, 4 inches square suspended from a steel rod. The square was slowly inverted through 180 degrees and mice observed for 30 seconds. Any mouse falling from the wire mesh was scored as ataxic.
Mice were placed into an enclosed acrylic plastic chamber (21 cm height, approximately 30 cm diameter) with a high-frequency speaker (4 cm diameter) in the center of the top lid. An audio signal generator (Protek model B-810) was used to produce a continuous sinusoidal tone that Was swept linearly in frequency between 8 kHz and 16 kHz once each 10 msec. The average sound pressure level (SPL) during stimulation was approximately 100 dB at the floor of the chamber. Mice were placed within the chamber and allowed to acclimatize for 1 minute. DBA/2 mice in the vehicle-treated group responded to the sound stimulus (applied until tonic extension occurred, or for a maximum of 60 sec) with a characteristic seizure sequence consisting of wild running followed by clonic seizures, and later by tonic extension, and finally by respiratory arrest and death in 80% or more of the mice. In vehicle-treated mice, the entire sequence of seizures to respiratory arrest lasts approximately 15-20 seconds.
The incidence of all the seizure phases in the drug-treated and vehicle-treated mice was recorded, and the occurrence of tonic seizures were used for calculating anticonvulsant ED50 values by probit analysis. Mice were used only once for testing at each time and dose point.

[3] = biological target: T2, N-type Ca2+ channels in cultured superior cervical ganglion (SCG) neurons (Rattus norvegicus, UniProt Q02294); experiment: Calcium current in superior cervical ganglion neurons (whole-cell voltage clamp); type: cell-based; conditions: for inhibition at 1 µM: read-out: SCG Ca, % blockage at 1 μM; for inhibition at 10 µM: read-out: SCG Ca, % blockage at 10 μM
T2 construct: from tissue
Procedure: (§1) Electrophysiological techniques were used to measure the effects of experimental compounds on voltage-gated Ca^2+, […] , and K^+ channels. […] Sodium and potassium channel currents were measured from acutely dissociated SCG neurons.
(§2) Dissociation of the neurons from the ganglia was accomplished using a 30 to 45 minute treatment in 0.25% trypsin, similar to methods outlined in Higgins, et al. (see Higgins D. et al. “Tissue culture of mammalian autonomic neurons.” In Banker G. and Goslin K. (Eds), Culturing Nerve Cells, Cambridge, Mass., MIT Press [1991]).
(§3) Ca^2+, Na^+, and K^+ channel currents in SCG neurons were measured using conventional single electrode whole-cell voltage-clamp techniques, outlined in Hamill et al., (see Hamill O. P. et al. “Improved patch-clamp techniques for high resolution current recordings from cells and cell-free membrane patches.”Pflugers Arch., 1981;391:85-100). For Ca^2+ channel experiments, the external bathing solution contained tetraethylammonium chloride (100 mM), choline chloride (52 mM), NaCl (15 mM), HEPES (10 mM), glucose (5.6 mM), CaCl2 (2 mM), and MgCl2 (0.8 mM), pH 7.35 with KOH; with the internal pipette solution containing cesium methane sulfonate (140 mM), EGTA (10 mM), and HEPES (10 mM), supplemented with 5 mM Mg^2+-ATP on the day of the experiment, pH 7.4 with CsOH. For Na^+ and K^+ channel experiments, the external bathing solution contained NaCl (150 mM), KCl (5 mM), MgCl2 (1.1 mM), CaCl2 (2.6 mM), Na-HEPES (10 mM), and glucose (10 mM), pH 7.4; with the internal pipette solution containing KCl (80 mM), K-gluconate (50 mM), HEPES (10 mM), and EGTA (10 mM), pH 7.4 with KOH. Experimental compounds were diluted into the external solution and applied to the soma of cells by local perfusion from large diameter (20-50 μm) glass micropipettes or from a U-tube applicator.
After obtaining a whole-cell recording, Ca^2+ channels were elicited by stepping to test potentials between −40 and +20 mV for 120 msec from the holding potential of −90 mV to determine if the amplitude of the current and clamp control were adequate for evaluation of drug effects. Ca^2+ channel currents were evoked by stepping from a holding potentials between −65 mV and −55 mV to a test potential of +20 mV for 150 msec every 40 seconds. The amplitude of the Ca^2+ channel currents were compared before and during drug application and drug effects expressed as percent inhibition of the amplitude of control currents.

[4] = system: Na+ channels in SCG neurons; experiment: Sodium current in superior cervical ganglion neurons (whole-cell voltage clamp); type: cell-based, rat; conditions: at 10 μM
Procedure: as §1, §2, §3
(§4) For Na^+ and K^+ channel currents, following the determination of the I/V relationship for each cell in control solution, currents were evoked from a holding potential between −65 and −55 mV by stepping every 10 sec to a test potential of either 0 mV for Na^+ or +50 mV for K^+ current for a duration of 35 msec. Peak inward current was measured for Na^+ and sustained current for K^+ channel currents. […] Test compounds were applied until steady-state block was achieved. Data were expressed as percent inhibition of control amplitudes for Na^+ and K^+ channel currents.

[5] = system: K+ channels in SCG neurons; experiment: Potassium current in superior cervical ganglion neurons (whole-cell voltage clamp); type: cell-based, rat
Procedure: as §1, §2, §3, §4

[6] = system: electroshock-induced tonic extensor seizures in CF-1 mice; experiment: Maximal electroshock testing; type: in vivo; conditions: protected/tested
Procedure: Maximal Electroshock Testing
In this test, four representative compounds were tested for their anticonvulsant effects using the procedure described below.
Male CF-1 mice, 20 to 28 g, from Charles River Laboratories, Portage, Mich. were used in all experiments. Groups of 10 mice each were given various intravenous doses of test compound in aqueous solution with 10% Emulphan® Surfactant in a volume of 10 mL/kg of body weight. Electroshock was delivered by corneal electrodes with 60 Hz alternating current (50 mA root-mean-squared for 0.2 seconds) using a constant-current stimulator (Wahlquist Instruments, Salt Lake City, Utah). Untreated or saline-treated mice reliably had tonic extensor seizures with rearward extension of hindlimbs more than 3 seconds. These methods are similar to those published by Krall R. L.; Penry J. K.; White B. G.; and Kupferberg H. K. Antiepileptic Drug Development II. Anticonvulsant Drug Screening, Epilepsia, 1978; 19:409-428.

[7] = biological target: T3, L-type calcium channels in A10 cells (Rattus norvegicus, UniProt P22002); experiment: L-type Ca2+ channel blocking potency in A10 cells (FLIPR); type: cell-based; conditions: read-out: FLPA10 IC50
T3 construct: which endogenously expresses L-type calcium channels; host or cells: A10 rat embryonic thoracic aorta smooth muscle cells
How it was run: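 Rat A10 aortic smooth-muscle cells endogenously expressing L-type channels were loaded with Oregon Green BAPTA-1 and preincubated with compound for 5 min at 35 °C. Cells were then depolarized with 140 mM KCl buffer. Summed fluorescence above basal over 120 s gave % inhibition versus buffer-treated stimulated wells, with zero influx defined by 1.0×10^−6 M nitrendipine.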

[8] = 5 μM nitrendipine present, read-out: IMR32 IC50
[9] = 10 mg/Kg iv, 15 min posttreatment

T2 sequence (Q02294 whole entry): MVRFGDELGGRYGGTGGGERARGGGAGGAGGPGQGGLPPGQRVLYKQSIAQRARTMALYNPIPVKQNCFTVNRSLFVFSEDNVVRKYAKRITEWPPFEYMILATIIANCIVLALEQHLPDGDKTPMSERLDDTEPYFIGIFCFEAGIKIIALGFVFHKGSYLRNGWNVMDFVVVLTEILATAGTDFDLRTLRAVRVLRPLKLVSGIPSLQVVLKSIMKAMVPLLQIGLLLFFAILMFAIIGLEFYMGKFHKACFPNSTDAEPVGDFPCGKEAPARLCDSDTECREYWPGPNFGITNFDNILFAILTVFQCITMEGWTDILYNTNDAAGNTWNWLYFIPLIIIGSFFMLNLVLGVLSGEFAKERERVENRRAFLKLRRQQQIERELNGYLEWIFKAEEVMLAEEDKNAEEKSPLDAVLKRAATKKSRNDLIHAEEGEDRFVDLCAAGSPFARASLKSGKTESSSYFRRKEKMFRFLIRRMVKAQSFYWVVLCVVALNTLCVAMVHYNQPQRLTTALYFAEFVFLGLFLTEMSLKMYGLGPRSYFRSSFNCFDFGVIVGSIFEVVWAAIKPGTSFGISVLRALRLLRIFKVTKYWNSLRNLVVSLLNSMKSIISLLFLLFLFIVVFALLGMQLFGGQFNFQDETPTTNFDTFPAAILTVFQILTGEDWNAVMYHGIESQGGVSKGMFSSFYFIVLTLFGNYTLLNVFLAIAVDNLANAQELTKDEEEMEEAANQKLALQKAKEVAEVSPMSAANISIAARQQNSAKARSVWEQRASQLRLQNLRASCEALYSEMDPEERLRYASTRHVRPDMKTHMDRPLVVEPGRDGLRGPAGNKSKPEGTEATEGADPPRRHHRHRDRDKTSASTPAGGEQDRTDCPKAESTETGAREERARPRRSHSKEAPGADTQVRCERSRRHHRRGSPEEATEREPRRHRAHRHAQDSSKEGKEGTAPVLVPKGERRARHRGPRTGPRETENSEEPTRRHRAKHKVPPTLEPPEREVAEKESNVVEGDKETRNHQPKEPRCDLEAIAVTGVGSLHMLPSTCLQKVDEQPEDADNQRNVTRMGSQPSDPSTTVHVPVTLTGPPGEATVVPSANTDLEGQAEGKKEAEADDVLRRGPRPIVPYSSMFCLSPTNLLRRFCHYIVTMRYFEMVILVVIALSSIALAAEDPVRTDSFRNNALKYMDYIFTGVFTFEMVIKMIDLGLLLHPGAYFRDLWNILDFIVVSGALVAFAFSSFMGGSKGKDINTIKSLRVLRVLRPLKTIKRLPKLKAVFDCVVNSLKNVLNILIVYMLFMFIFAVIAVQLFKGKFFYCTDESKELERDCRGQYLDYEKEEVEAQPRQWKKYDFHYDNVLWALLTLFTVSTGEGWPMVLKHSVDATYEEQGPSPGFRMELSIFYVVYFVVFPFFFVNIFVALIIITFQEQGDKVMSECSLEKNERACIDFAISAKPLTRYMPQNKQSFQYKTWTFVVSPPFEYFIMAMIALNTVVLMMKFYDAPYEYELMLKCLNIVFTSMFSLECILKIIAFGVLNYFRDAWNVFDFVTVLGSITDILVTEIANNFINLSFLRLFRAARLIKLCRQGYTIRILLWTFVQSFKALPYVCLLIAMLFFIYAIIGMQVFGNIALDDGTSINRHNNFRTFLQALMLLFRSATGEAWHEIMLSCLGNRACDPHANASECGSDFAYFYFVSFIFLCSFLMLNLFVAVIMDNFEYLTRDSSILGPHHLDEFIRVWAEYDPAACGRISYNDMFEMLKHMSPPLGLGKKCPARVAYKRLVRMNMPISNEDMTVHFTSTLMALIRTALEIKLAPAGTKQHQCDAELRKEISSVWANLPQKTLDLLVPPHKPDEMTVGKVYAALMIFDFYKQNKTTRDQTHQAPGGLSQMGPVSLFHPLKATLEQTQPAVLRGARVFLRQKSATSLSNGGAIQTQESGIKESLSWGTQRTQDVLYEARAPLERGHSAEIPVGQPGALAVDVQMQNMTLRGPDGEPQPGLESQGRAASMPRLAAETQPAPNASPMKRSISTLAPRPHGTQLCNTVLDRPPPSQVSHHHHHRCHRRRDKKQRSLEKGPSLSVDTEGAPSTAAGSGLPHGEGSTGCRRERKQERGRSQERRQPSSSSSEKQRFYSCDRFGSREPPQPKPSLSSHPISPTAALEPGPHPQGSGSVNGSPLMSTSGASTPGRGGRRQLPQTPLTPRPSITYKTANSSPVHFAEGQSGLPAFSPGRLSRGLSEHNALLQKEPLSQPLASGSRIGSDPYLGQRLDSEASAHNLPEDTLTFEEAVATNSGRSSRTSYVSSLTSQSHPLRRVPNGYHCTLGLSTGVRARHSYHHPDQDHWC
T2 sequence (P54290 25-944 partner limits assumed): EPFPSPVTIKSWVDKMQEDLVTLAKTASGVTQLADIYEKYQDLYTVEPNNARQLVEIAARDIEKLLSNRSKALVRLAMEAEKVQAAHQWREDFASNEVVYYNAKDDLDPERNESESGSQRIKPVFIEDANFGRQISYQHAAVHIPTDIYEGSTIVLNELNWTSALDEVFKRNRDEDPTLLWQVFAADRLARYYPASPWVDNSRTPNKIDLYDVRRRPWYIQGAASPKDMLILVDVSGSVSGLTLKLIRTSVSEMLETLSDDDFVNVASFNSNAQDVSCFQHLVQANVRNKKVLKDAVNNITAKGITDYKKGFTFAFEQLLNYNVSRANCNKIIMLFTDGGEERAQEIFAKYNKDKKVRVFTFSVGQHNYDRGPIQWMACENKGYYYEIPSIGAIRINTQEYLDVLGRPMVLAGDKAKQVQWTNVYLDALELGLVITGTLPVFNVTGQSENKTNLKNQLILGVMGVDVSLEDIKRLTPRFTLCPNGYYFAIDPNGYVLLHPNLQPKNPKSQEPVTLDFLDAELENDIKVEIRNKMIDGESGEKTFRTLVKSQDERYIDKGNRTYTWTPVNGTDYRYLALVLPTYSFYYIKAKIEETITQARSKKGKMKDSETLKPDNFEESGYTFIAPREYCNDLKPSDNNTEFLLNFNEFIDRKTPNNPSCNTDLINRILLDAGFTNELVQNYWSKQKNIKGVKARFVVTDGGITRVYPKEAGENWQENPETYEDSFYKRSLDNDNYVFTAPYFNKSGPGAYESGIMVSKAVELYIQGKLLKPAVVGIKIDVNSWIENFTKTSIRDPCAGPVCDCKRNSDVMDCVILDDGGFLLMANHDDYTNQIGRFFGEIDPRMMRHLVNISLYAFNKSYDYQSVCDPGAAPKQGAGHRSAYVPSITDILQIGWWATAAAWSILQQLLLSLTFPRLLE
T2 sequence (P54290 945-1091 partner limits assumed): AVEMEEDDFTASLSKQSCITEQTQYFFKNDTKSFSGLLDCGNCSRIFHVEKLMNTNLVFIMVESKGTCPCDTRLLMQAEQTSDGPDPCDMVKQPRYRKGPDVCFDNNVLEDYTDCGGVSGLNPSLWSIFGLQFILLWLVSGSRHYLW
T2 sequence (P54287 whole entry partner): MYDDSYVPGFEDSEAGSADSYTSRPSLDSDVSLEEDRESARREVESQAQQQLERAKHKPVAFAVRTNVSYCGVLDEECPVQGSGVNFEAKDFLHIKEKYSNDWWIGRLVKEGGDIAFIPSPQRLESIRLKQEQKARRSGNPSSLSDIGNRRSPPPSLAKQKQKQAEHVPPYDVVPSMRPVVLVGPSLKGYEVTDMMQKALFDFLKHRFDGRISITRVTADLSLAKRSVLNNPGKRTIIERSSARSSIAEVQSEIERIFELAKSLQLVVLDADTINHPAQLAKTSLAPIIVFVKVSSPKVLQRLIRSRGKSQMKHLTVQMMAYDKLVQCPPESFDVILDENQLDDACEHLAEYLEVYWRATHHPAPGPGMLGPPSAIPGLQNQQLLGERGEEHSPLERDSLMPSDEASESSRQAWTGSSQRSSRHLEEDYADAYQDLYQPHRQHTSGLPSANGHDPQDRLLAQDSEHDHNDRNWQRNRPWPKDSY

Row | Structure (SMILES) | IC50 [1, 8] [nM] | responders at 30 mg/kg ([2]; 0.25 h, 15 min posttreatment) [%] | inhibition at 1 µM [3] [%] | inhibition at 10 µM [3] [%] | SCG Na, % blockage at 10 μM [4] [% @ 10] | SCG K, % blockage at 1 μM [5] [% @ 1] | SCG K, % blockage at 10 μM [5] [% @ 10] | Number of Mice Protected from Tonic Convulsions [6, 9] | inhibition at 1 µM ([1]; IMR-32, IMR-32 cells, at 1 μM, read-out: IMR32 % blockage at 1 μM) [%] | inhibition at 10 µM ([1]; IMR-32, IMR-32 cells, at 10 μM, read-out: IMR32 % blockage at 10 μM) [%] | responders at 30 mg/kg ([2]; 0.75 h, 45 min posttreatment) [%] | Number of Mice Protected from Tonic Convulsions ([6]; 10 mg/Kg iv, 45 min posttreatment) | Number of Mice Protected from Tonic Convulsions ([6]; 30 mg/Kg iv, 15 min posttreatment) | Number of Mice Protected from Tonic Convulsions ([6]; 30 mg/Kg iv, 45 min posttreatment) | melting point [°C] | IC50 ([1]; estimated from two data points, read-out: IMR32 IC50 (estimated IC50 values based on two data points)) [nM] | IC50 [7] [nM]
1 | CC(C)C[C@H](NC(=O)N1CCCCCC1)C(=O)NCCCC(c1ccc(F)cc1)c1ccc(F)cc1 [Example 1, (S)-Azepane-1-carboxylic acid {1-[4,4-bis-(4-fluoro-phenyl)-butylcarbamoyl]-3-methyl-butyl}-amide] | 820 | 60 | 17 | 16 | 14 | 4.3 | 3 | – | – | – | – | – | – | – | – | – | –
2 | CC(C)=CCN(C)[C@@H](CC(C)C)C(=O)NCCCC(c1ccc(F)cc1)c1ccc(F)cc1 [Example 13, (S)-4-Methyl-2-[methyl-(3-methyl-but-2-enyl)-amino]-pentanoic acid [4,4-bis-(4-fluoro-phenyl)-butyl]-amide monohydrochloride] | 520 | – | 23 | 77 | 95 | 10 | 48 | 3/5 | – | – | – | – | – | – | – | – | –
3 | CC(C)C[C@H](NC1CCCCC1)C(=O)NCCCC(c1ccc(F)cc1)c1ccc(F)cc1.Cl [Example 15, (S)-2-Cyclohexylamino-4-methyl-pentanoic acid [4,4-bis-(4-fluoro-phenyl)-butyl]-amide monohydrochloride] | – | 100 | – | – | – | – | – | 5/5 | 62 | 87 | 100 | 2/5 | 3/3 | 5/5 | – | – | –
4 | CC(C)C[C@H](NC(=O)N1CCCCCC1)C(=O)NC(c1ccccc1)c1ccccc1 [Example 3, (S)-Azepane-1-carboxylic acid [1-(benzhydryl-carbamoyl)-3-methyl-butyl]-amide] | 4400 | – | – | 33 | 5 | – | 48 | – | – | – | – | – | – | – | 180 to 181 | – | –
5 | CC(C)C[C@@H](C(=O)N1CCN(C(c2ccc(F)cc2)c2ccc(F)cc2)CC1)N(C)C1CCCCC1 [Example 40, (S)-1-{4-[Bis-(4-fluoro-phenyl)-methyl]-piperazin-1-yl}-2-(cyclohexyl-methyl-amino)-4-methyl-pentan-1-one] | – | 0 | – | – | – | – | – | – | – | – | 0 | – | – | – | – | 700 | 500
